Patent publication US11000509B2, “Methods and compositions for daily ophthalmic administration of phentolamine to improve visual performance” (Ocuphire Pharma, Inc., priority 2013, dated 2021)
Several values for one entry are separate records, joined by “and”; a condition that tells them apart may be missing. Equal values may be shown once. Where a name gives a salt, the structure may show the parent alone. Marks after values point to notes of the source that are not given here.

System: eyes of patients with pupil size in dim light of greater than 7 mm
Assay: Example 2 clinical study: pupil diameter by NeurOptics pupilometer; one drop oxymetazoline (Visine LR) then one drop test article in Tears Naturale II in each eye
Format: in vivo, humans
Details: for Range of pupil diameters: immediately prior to administration
Description: Sixteen patients were randomized into four groups (of four subjects each). Each group was treated on three successive study visits separated by at least 4 days with one drop of ophthalmic oxymetazoline solution (Visine LR®) in each eye followed by one drop test article in each eye. The test article was a 0.2% (w/v) phentolamine mesylate solution, 0.4% (w/v) phentolamine mesylate solution, 0.8% (w/v) phentolamine mesylate solution, or placebo. Test articles contained the designed amount of phentolamine mesylate in a solution of Tears Naturale II® (from Alcon Labs). Placebo was just Tears Naturale II® (from Alcon Labs). Tears Naturale II® (from Alcon Labs) contains Dextran 70 (0.1% by weight), Hydroxypropyl Methylcellulose 2910 (0.3% by weight), Polyquarternium-1 (0.001% by weight), potassium chloride, water (purified), sodium borate, sodium chloride, and hydrochloric acid and/or sodium hydroxide as necessary to adjust the pH. The patients' eye redness and pupil diameters were recorded at baseline (i.e., prior to treatment administration), and at 30 minutes, 1 hour, 2 hours, 4 hours, and 8 hours after administration of test articles. The incidence of any treatment-emergent adverse events was also recorded. Total study duration was approximately nine hours.
Eye redness of patients' eyes was evaluated by the research assistant and recorded as a single integer of value 0 (no redness) to 4 (extreme redness) at baseline and each time point after treatment. Pupil diameters were measured to within 0.1 mm for each eye at baseline and each subsequent time point using a NeurOptics™ pupilometer. Monocular high contrast visual acuity was measured for each eye under photopic conditions at baseline and each subsequent time point in a darkened room using a Precision Vision™ High Contrast (100% tint) Visual Acuity Chart (Catalog #2102) backlit by the Precision Vision Illumination Box. Monocular low contrast visual acuity was measured for each eye under photopic conditions at baseline and each subsequent time point in a darkened room using a Precision Vision™ Low Contrast (5% tint) Visual Acuity Chart (Catalog #2186) backlit by the Precision Vision Illumination Box. Effect of treatment on glare was assessed using an experimental test method consisting of a panel with a high wattage central light emitting diode (LED) and a set of 7 lower wattage red LEDs radiating horizontally and vertically from the central light.
Comparisons of changes in mean values within treatment groups were tested for significance using two-tailed paired two sample t-tests with a threshold for significance set at p<0.01 (Bonferroni Correction for multiple paired t-tests). Differences between treatment groups with respect to mean values for pupil size over the course of the study were tested for significance using repeated measure ANOVA (which discards data from subjects lacking any data points). Differences in mean eye redness between treatment groups were evaluated using Kruskal-Wallis nonparametric testing. Differences in means between treatment groups at individual time points were tested for significance using one-way ANOVA.

[1] = 0.2% (w/v) solution, 30 min after treatment
[2] = 0.2% (w/v) solution, 1 hour after treatment
[3] = 0.2% (w/v) solution, 2 hours after treatment
[4] = 0.2% (w/v) solution, 4 hours after treatment
[5] = 0.2% (w/v) solution, 8 hours after treatment
[6] = 0.2% (w/v) solution, Baseline, prior to treatment
[7] = 0.4% (w/v) solution, 30 min after treatment
[8] = 0.4% (w/v) solution, 1 hour after treatment
[9] = 0.4% (w/v) solution, 2 hours after treatment
[10] = 0.4% (w/v) solution, 4 hours after treatment
[11] = 0.4% (w/v) solution, 8 hours after treatment
[12] = 0.4% (w/v) solution, Baseline, prior to treatment
[13] = 0.8% (w/v) solution, 30 min after treatment
[14] = 0.8% (w/v) solution, 1 hour after treatment
[15] = 0.8% (w/v) solution, 2 hours after treatment
[16] = 0.8% (w/v) solution, 4 hours after treatment
[17] = 0.8% (w/v) solution, 8 hours after treatment
[18] = 0.8% (w/v) solution, Baseline, prior to treatment

## Cc1ccc(N(CC2=NCCN2)c2cccc(O)c2)cc1 [Phentolamine Mesylate, phentolamine mesylate]
[1]
  Maximum pupil diameter: 9.2 mm
  Mean change in pupil diameter from baseline: −0.04 mm
  Mean pupil diameter: 7.74 mm
  Minimum pupil diameter: 5.1 mm
[2]
  Maximum pupil diameter: 8.9 mm
  Mean change in pupil diameter from baseline: −0.24 mm
  Mean pupil diameter: 7.54 mm
  Minimum pupil diameter: 4.9 mm
[3]
  Maximum pupil diameter: 8.4 mm
  Mean change in pupil diameter from baseline: −0.75 mm
  Mean pupil diameter: 7.01^c mm
  Minimum pupil diameter: 4.7 mm
[4]
  Maximum pupil diameter: 8.0 mm
  Mean change in pupil diameter from baseline: −0.69 mm
  Mean pupil diameter: 7.30^d mm
  Minimum pupil diameter: 6.3 mm
[5]
  Maximum pupil diameter: 8.5 mm
  Mean change in pupil diameter from baseline: −0.59 mm
  Mean pupil diameter: 7.18 mm
  Minimum pupil diameter: 4.7 mm
0.2% (w/v) solution, Baseline
  Range of pupil diameters: 5.2-8.8 mm
[6]
  Maximum pupil diameter: 8.8 mm
  Mean pupil diameter: 7.8 mm and 7.78 mm
  Minimum pupil diameter: 5.2 mm
0.2%, 0.4% and 0.8% (w/v), by one hour post treatment, p<0.01
  change from baseline in mean pupil diameter, significance: significant
0.2%, 0.4%, 0.8% (w/v), any time point
  mean pupil diameter between different doses: no statistically significant differences
[7]
  Maximum pupil diameter: 8.8 mm
  Mean change in pupil diameter from baseline: 0.00 mm
  Mean pupil diameter: 7.72 mm
  Minimum pupil diameter: 5.6 mm
[8]
  Maximum pupil diameter: 8.3 mm
  Mean change in pupil diameter from baseline: −0.29 mm
  Mean pupil diameter: 7.41 mm
  Minimum pupil diameter: 5.5 mm
[9]
  Maximum pupil diameter: 8.4 mm
  Mean change in pupil diameter from baseline: −0.64 mm
  Mean pupil diameter: 7.05 mm
  Minimum pupil diameter: 5.0 mm
[10]
  Maximum pupil diameter: 8.1 mm
  Mean change in pupil diameter from baseline: −0.74 mm
  Mean pupil diameter: 7.01 mm
  Minimum pupil diameter: 5.0 mm
[11]
  Maximum pupil diameter: 8.6 mm
  Mean change in pupil diameter from baseline: −0.74 mm
  Mean pupil diameter: 7.01 mm
  Minimum pupil diameter: 4.8 mm
0.4% (w/v) solution, Baseline
  Range of pupil diameters: 5.8-8.6 mm
[12]
  Maximum pupil diameter: 8.6 mm
  Mean pupil diameter: 7.7 mm and 7.71 mm
  Minimum pupil diameter: 5.8 mm
[13]
  Maximum pupil diameter: 9.2 mm
  Mean change in pupil diameter from baseline: −0.10 mm
  Mean pupil diameter: 7.87 mm
  Minimum pupil diameter: 5.2 mm
[14]
  Maximum pupil diameter: 9.1 mm
  Mean change in pupil diameter from baseline: −0.27 mm
  Mean pupil diameter: 7.69 mm
  Minimum pupil diameter: 5.1 mm
[15]
  Maximum pupil diameter: 8.7 mm
  Mean change in pupil diameter from baseline: −0.66 mm
  Mean pupil diameter: 7.30 mm
  Minimum pupil diameter: 4.7 mm
[16]
  Maximum pupil diameter: 8.6 mm
  Mean change in pupil diameter from baseline: −0.64 mm
  Mean pupil diameter: 7.32 mm
  Minimum pupil diameter: 5.5 mm
[17]
  Maximum pupil diameter: 8.7 mm
  Mean change in pupil diameter from baseline: −0.56 mm
  Mean pupil diameter: 7.40 mm
  Minimum pupil diameter: 4.7 mm
0.8% (w/v) solution, Baseline
  Range of pupil diameters: 4.6-9.3 mm
[18]
  Maximum pupil diameter: 9.3 mm
  Mean pupil diameter: 8.0 mm and 7.96 mm
  Minimum pupil diameter: 4.6 mm
Any concentration (0.2%, 0.4%, 0.8% w/v), 2, 4 and 8 hours
  mean pupil diameter compared to placebo (ad hoc Fisher's test): significant differences
